In patent US20250223268A1, “4-Methylsulfonylbenzamide Compound, Preparation Method, Herbicidal Composition And Use” (Jiangsu Flag Chemical Industry Co., Ltd., priority 2022, published 2025):

What was measured:
Test in all cases: Greenhouse herbicidal activity assay, post-emergence
Assay type in all cases: in vivo
Cyperus iria = conditions: Post-emergence test, rate 150 g a.i./hm^2, grade by fresh weight inhibition rate; for pest or weed control at 150 g/ha: Cyperus iria, read-out: Control efficacy grade, Cyperus iria
In short: (§1)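 Scores reflect fresh weight inhibition assessed 14-21 days after treatment, with grade A meaning ≥80% to 100% and grade E meaning <20%. Plants, raised in nutrient-soil pots inside a growth chamber, were sprayed on the foliage at the 3-6 leaf stage.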

Digitaria sanguinalis = conditions: Post-emergence test, rate 150 g a.i./hm^2, grade by fresh weight inhibition rate; for pest or weed control at 150 g/ha: Digitaria sanguinalis, read-out: Control efficacy grade, Digitaria sanguinalis
In short: as §1

Echinochloa crusgalli = conditions: Post-emergence test, rate 150 g a.i./hm^2, grade by fresh weight inhibition rate; for pest or weed control at 150 g/ha: Echinochloa crus-galli, read-out: Control efficacy grade, Echinochloa crusgalli
In short: as §1

Eclipta prostrata = conditions: Post-emergence test, rate 150 g a.i./hm^2, grade by fresh weight inhibition rate; for pest or weed control at 150 g/ha: Eclipta prostrata, read-out: Control efficacy grade, Eclipta prostrata
In short: as §1

Leptochloa chinensis = conditions: Post-emergence test, rate 150 g a.i./hm^2, grade by fresh weight inhibition rate; for pest or weed control at 150 g/ha: Dinebra chinensis, read-out: Control efficacy grade, Leptochloa chinensis
In short: as §1

Question: Which “Control efficacy grade, Cyperus iria” value (Cyperus iria) does the source give for `Cn1ncnc1NC(=O)c1ccc(S(C)(=O)=O)c([S+]([O-])CC2CC2)c1Cl` (single isomer, unassigned) [Compound 2-29] here?
Answer: A (Fresh weight inhibition rate≥80% to 100%)

Question: And the “Control efficacy grade, Digitaria sanguinalis” value (Digitaria sanguinalis)?
Answer: A (Fresh weight inhibition rate≥80% to 100%)

Question: What about the “Control efficacy grade, Echinochloa crusgalli” value (Echinochloa crusgalli) of the same molecule?
Answer: A (Fresh weight inhibition rate≥80% to 100%)

Question: And the “Control efficacy grade, Eclipta prostrata” value (Eclipta prostrata)?
Answer: A (Fresh weight inhibition rate≥80% to 100%)

Question: And the “Control efficacy grade, Leptochloa chinensis” value (Leptochloa chinensis)?
Answer: A (Fresh weight inhibition rate≥80% to 100%)

Question: For `Cn1ncnc1NC(=O)c1ccc(S(C)(=O)=O)c([S+]([O-])CC2CC2)c1Cl` (single isomer, unassigned) [Compound 2-30], which “Control efficacy grade, Cyperus iria” value (Cyperus iria) is on record?
Answer: A (Fresh weight inhibition rate≥80% to 100%)

Question: What about the “Control efficacy grade, Digitaria sanguinalis” value (Digitaria sanguinalis) of the same molecule?
Answer: A (Fresh weight inhibition rate≥80% to 100%)

Question: What about the “Control efficacy grade, Echinochloa crusgalli” value (Echinochloa crusgalli) of the same molecule?
Answer: A (Fresh weight inhibition rate≥80% to 100%)

Question: And the “Control efficacy grade, Eclipta prostrata” value (Eclipta prostrata)?
Answer: A (Fresh weight inhibition rate≥80% to 100%)

Question: What about the “Control efficacy grade, Leptochloa chinensis” value (Leptochloa chinensis) of the same molecule?
Answer: A (Fresh weight inhibition rate≥80% to 100%)

Question: For `CCC(C)S(=O)(=O)c1c(S(C)(=O)=O)ccc(C(=O)Nc2nnc(C)o2)c1Cl` (single isomer, unassigned) [Compound 3-25], which “Control efficacy grade, Cyperus iria” value (Cyperus iria) is on record?
Answer: A (Fresh weight inhibition rate≥80% to 100%)

Question: What about the “Control efficacy grade, Digitaria sanguinalis” value (Digitaria sanguinalis) of the same molecule?
Answer: A (Fresh weight inhibition rate≥80% to 100%)

Question: And the “Control efficacy grade, Echinochloa crusgalli” value (Echinochloa crusgalli)?
Answer: A (Fresh weight inhibition rate≥80% to 100%)

Question: And the “Control efficacy grade, Eclipta prostrata” value (Eclipta prostrata)?
Answer: A (Fresh weight inhibition rate≥80% to 100%)

Question: What about the “Control efficacy grade, Leptochloa chinensis” value (Leptochloa chinensis) of the same molecule?
Answer: A (Fresh weight inhibition rate≥80% to 100%)

Question: For `CCC(C)Sc1c(S(C)(=O)=O)ccc(C(=O)Nc2nnco2)c1Cl` (single isomer, unassigned) [Compound 3-283], which “Control efficacy grade, Cyperus iria” value (Cyperus iria) is on record?
Answer: A (Fresh weight inhibition rate≥80% to 100%)

Question: What about the “Control efficacy grade, Digitaria sanguinalis” value (Digitaria sanguinalis) of the same molecule?
Answer: A (Fresh weight inhibition rate≥80% to 100%)

Question: What about the “Control efficacy grade, Echinochloa crusgalli” value (Echinochloa crusgalli) of the same molecule?
Answer: A (Fresh weight inhibition rate≥80% to 100%)

Question: And the “Control efficacy grade, Eclipta prostrata” value (Eclipta prostrata)?
Answer: A (Fresh weight inhibition rate≥80% to 100%)

Question: What about the “Control efficacy grade, Leptochloa chinensis” value (Leptochloa chinensis) of the same molecule?
Answer: A (Fresh weight inhibition rate≥80% to 100%)

Question: With `CC(C)[S+]([O-])c1c(S(C)(=O)=O)ccc(C(=O)Nc2nnc(C3CC3)o2)c1Cl` (single isomer, unassigned) [Compound 3-622] as the molecule, how does the “Control efficacy grade, Cyperus iria” value (Cyperus iria) read?
Answer: A (Fresh weight inhibition rate≥80% to 100%)

Question: And the “Control efficacy grade, Digitaria sanguinalis” value (Digitaria sanguinalis)?
Answer: A (Fresh weight inhibition rate≥80% to 100%)

Question: What about the “Control efficacy grade, Echinochloa crusgalli” value (Echinochloa crusgalli) of the same molecule?
Answer: A (Fresh weight inhibition rate≥80% to 100%)

Question: What about the “Control efficacy grade, Eclipta prostrata” value (Eclipta prostrata) of the same molecule?
Answer: A (Fresh weight inhibition rate≥80% to 100%)

Question: What about the “Control efficacy grade, Leptochloa chinensis” value (Leptochloa chinensis) of the same molecule?
Answer: A (Fresh weight inhibition rate≥80% to 100%)

Question: Which “Control efficacy grade, Cyperus iria” value (Cyperus iria) does the source give for `CC(C)[S+]([O-])c1c(S(C)(=O)=O)ccc(C(=O)Nc2nnc(C3CC3)o2)c1Cl` (single isomer, unassigned) [Compound 3-623] here?
Answer: A (Fresh weight inhibition rate≥80% to 100%)

Question: What about the “Control efficacy grade, Digitaria sanguinalis” value (Digitaria sanguinalis) of the same molecule?
Answer: A (Fresh weight inhibition rate≥80% to 100%)

Question: And the “Control efficacy grade, Echinochloa crusgalli” value (Echinochloa crusgalli)?
Answer: A (Fresh weight inhibition rate≥80% to 100%)

Question: What about the “Control efficacy grade, Eclipta prostrata” value (Eclipta prostrata) of the same molecule?
Answer: A (Fresh weight inhibition rate≥80% to 100%)

Question: And the “Control efficacy grade, Leptochloa chinensis” value (Leptochloa chinensis)?
Answer: A (Fresh weight inhibition rate≥80% to 100%)

Question: What does the source list for `CCCSc1c(S(C)(=O)=O)ccc(C(=O)Nc2nnnn2C)c1Cl` [Compound 1-1, 2-chloro-N-(1-methyl-1H-tetrazol-5-yl)-4-(methylsulfonyl)-3-(propylthio)benzamide]?
Answer: pest or weed control at 150 g/ha (Cyperus iria): 80 to 100%; pest or weed control at 150 g/ha (Digitaria sanguinalis): 80 to 100%; pest or weed control at 150 g/ha (Echinochloa crusgalli): 80 to 100%; pest or weed control at 150 g/ha (Eclipta prostrata): 80 to 100%; pest or weed control at 150 g/ha (Leptochloa chinensis): 80 to 100%

Question: Which “Control efficacy grade, Cyperus iria” value (Cyperus iria) does the source give for `CC(C)Sc1c(S(C)(=O)=O)ccc(C(=O)Nc2nnnn2C)c1Cl` [Compound 1-6] here?
Answer: A (Fresh weight inhibition rate≥80% to 100%)

Question: And the “Control efficacy grade, Digitaria sanguinalis” value (Digitaria sanguinalis)?
Answer: A (Fresh weight inhibition rate≥80% to 100%)

Question: And the “Control efficacy grade, Echinochloa crusgalli” value (Echinochloa crusgalli)?
Answer: A (Fresh weight inhibition rate≥80% to 100%)

Question: What about the “Control efficacy grade, Eclipta prostrata” value (Eclipta prostrata) of the same molecule?
Answer: A (Fresh weight inhibition rate≥80% to 100%)

Question: What about the “Control efficacy grade, Leptochloa chinensis” value (Leptochloa chinensis) of the same molecule?
Answer: A (Fresh weight inhibition rate≥80% to 100%)

Question: Which results are given for `CCCCSc1c(S(C)(=O)=O)ccc(C(=O)Nc2nnnn2C)c1Cl` [Compound 1-11]?
Answer: Control efficacy grade, Cyperus iria (Cyperus iria): A (Fresh weight inhibition rate≥80% to 100%); Control efficacy grade, Digitaria sanguinalis (Digitaria sanguinalis): A (Fresh weight inhibition rate≥80% to 100%); Control efficacy grade, Echinochloa crusgalli (Echinochloa crusgalli): A (Fresh weight inhibition rate≥80% to 100%); Control efficacy grade, Eclipta prostrata (Eclipta prostrata): A (Fresh weight inhibition rate≥80% to 100%); Control efficacy grade, Leptochloa chinensis (Leptochloa chinensis): A (Fresh weight inhibition rate≥80% to 100%)

Question: Which “Control efficacy grade, Cyperus iria” value (Cyperus iria) does the source give for `Cn1nnnc1NC(=O)c1ccc(S(C)(=O)=O)c(SCC2CC2)c1Cl` [Compound 1-27] here?
Answer: A (Fresh weight inhibition rate≥80% to 100%)

Question: What about the “Control efficacy grade, Digitaria sanguinalis” value (Digitaria sanguinalis) of the same molecule?
Answer: A (Fresh weight inhibition rate≥80% to 100%)

Question: And the “Control efficacy grade, Echinochloa crusgalli” value (Echinochloa crusgalli)?
Answer: A (Fresh weight inhibition rate≥80% to 100%)

Question: What about the “Control efficacy grade, Eclipta prostrata” value (Eclipta prostrata) of the same molecule?
Answer: A (Fresh weight inhibition rate≥80% to 100%)

Question: What about the “Control efficacy grade, Leptochloa chinensis” value (Leptochloa chinensis) of the same molecule?
Answer: A (Fresh weight inhibition rate≥80% to 100%)

Question: Which results are given for `Cn1nnnc1NC(=O)c1ccc(S(C)(=O)=O)c(SC2CC2)c1Cl` [Compound 1-32]?
Answer: Control efficacy grade, Cyperus iria (Cyperus iria): A (Fresh weight inhibition rate≥80% to 100%); Control efficacy grade, Digitaria sanguinalis (Digitaria sanguinalis): A (Fresh weight inhibition rate≥80% to 100%); Control efficacy grade, Echinochloa crusgalli (Echinochloa crusgalli): A (Fresh weight inhibition rate≥80% to 100%); Control efficacy grade, Eclipta prostrata (Eclipta prostrata): A (Fresh weight inhibition rate≥80% to 100%); Control efficacy grade, Leptochloa chinensis (Leptochloa chinensis): A (Fresh weight inhibition rate≥80% to 100%)

Question: Which “Control efficacy grade, Cyperus iria” value (Cyperus iria) does the source give for `Cn1nnnc1NC(=O)c1ccc(S(C)(=O)=O)c(SCC(F)(F)F)c1Cl` [Compound 1-52] here?
Answer: A (Fresh weight inhibition rate≥80% to 100%)

Question: And the “Control efficacy grade, Digitaria sanguinalis” value (Digitaria sanguinalis)?
Answer: A (Fresh weight inhibition rate≥80% to 100%)

Question: And the “Control efficacy grade, Echinochloa crusgalli” value (Echinochloa crusgalli)?
Answer: A (Fresh weight inhibition rate≥80% to 100%)

Question: And the “Control efficacy grade, Eclipta prostrata” value (Eclipta prostrata)?
Answer: A (Fresh weight inhibition rate≥80% to 100%)

Question: What about the “Control efficacy grade, Leptochloa chinensis” value (Leptochloa chinensis) of the same molecule?
Answer: A (Fresh weight inhibition rate≥80% to 100%)

Question: Which results are given for `Cn1nnnc1NC(=O)c1ccc(S(C)(=O)=O)c(S(=O)(=O)CC(F)(F)F)c1Cl` [Compound 1-56]?
Answer: Control efficacy grade, Cyperus iria (Cyperus iria): A (Fresh weight inhibition rate≥80% to 100%); Control efficacy grade, Digitaria sanguinalis (Digitaria sanguinalis): A (Fresh weight inhibition rate≥80% to 100%); Control efficacy grade, Echinochloa crusgalli (Echinochloa crusgalli): A (Fresh weight inhibition rate≥80% to 100%); Control efficacy grade, Eclipta prostrata (Eclipta prostrata): A (Fresh weight inhibition rate≥80% to 100%); Control efficacy grade, Leptochloa chinensis (Leptochloa chinensis): A (Fresh weight inhibition rate≥80% to 100%)

Question: `C=CCSc1c(S(C)(=O)=O)ccc(C(=O)Nc2nnnn2C)c1Cl` [Compound 1-67] was tested. Which “Control efficacy grade, Cyperus iria” value (Cyperus iria) did it give?
Answer: A (Fresh weight inhibition rate≥80% to 100%)

Question: And the “Control efficacy grade, Digitaria sanguinalis” value (Digitaria sanguinalis)?
Answer: A (Fresh weight inhibition rate≥80% to 100%)

Question: And the “Control efficacy grade, Echinochloa crusgalli” value (Echinochloa crusgalli)?
Answer: A (Fresh weight inhibition rate≥80% to 100%)

Question: And the “Control efficacy grade, Eclipta prostrata” value (Eclipta prostrata)?
Answer: A (Fresh weight inhibition rate≥80% to 100%)

Question: And the “Control efficacy grade, Leptochloa chinensis” value (Leptochloa chinensis)?
Answer: A (Fresh weight inhibition rate≥80% to 100%)

Question: `CCn1nnnc1NC(=O)c1ccc(S(C)(=O)=O)c([S+]([O-])C(C)C)c1Cl` (centres unmarked) [Compound 1-93, 2-chloro-N-(1-ethyl-1H-tetrazol-5-yl)-3-(isopropylsulfinyl)-4-(methylsulfonyl)benzamide] was tested. Which pest or weed control at 150 g/ha (Cyperus iria) did it give?
Answer: 80 to 100%

Question: And the pest or weed control at 150 g/ha (Digitaria sanguinalis)?
Answer: 80 to 100%

Question: And the pest or weed control at 150 g/ha (Echinochloa crusgalli)?
Answer: 80 to 100%

Question: And the pest or weed control at 150 g/ha (Eclipta prostrata)?
Answer: 80 to 100%

Question: What about the pest or weed control at 150 g/ha (Leptochloa chinensis) of the same molecule?
Answer: 80 to 100%

Question: For `CCCSc1c(S(C)(=O)=O)ccc(C(=O)Nc2ncnn2C)c1Cl` [Compound 2-1], which “Control efficacy grade, Cyperus iria” value (Cyperus iria) is on record?
Answer: A (Fresh weight inhibition rate≥80% to 100%)

Question: And the “Control efficacy grade, Digitaria sanguinalis” value (Digitaria sanguinalis)?
Answer: A (Fresh weight inhibition rate≥80% to 100%)

Question: And the “Control efficacy grade, Echinochloa crusgalli” value (Echinochloa crusgalli)?
Answer: A (Fresh weight inhibition rate≥80% to 100%)

Question: And the “Control efficacy grade, Eclipta prostrata” value (Eclipta prostrata)?
Answer: A (Fresh weight inhibition rate≥80% to 100%)

Question: What about the “Control efficacy grade, Leptochloa chinensis” value (Leptochloa chinensis) of the same molecule?
Answer: A (Fresh weight inhibition rate≥80% to 100%)
